Assay results taken from patent US10350184B2, “Derivatives used in the treatment of muscle atrophy” (METABRAIN RESEARCH, priority 2015, dated 2019).

Experiments:
[1] = system: myostatin gene expression; test: Measurement of myostatin expression in C2Cl2 (qPCR); assay type: cell-based, Mouse; settings: for inhibition of the expression of myostatin: C2Cl2 cells, Table 1, 0.5 μm; for percentage of myostatin gene expression in cells in contact with the molecules related to the expression in the control cells: concentration of the compound 0.5 μm, 6 h, active if less than or close to 70%
Method: C2Cl2 myoblastic cells (ATCC CRL-1772) are seeded in 24-well plates at the density of 30,000 cells per well and cultured in DMEM (Dulbecco's Modified Eagle Medium) medium containing glucose at 4.5 g/L and supplemented with fetal calf serum (10%) and antibiotics (penicillin and streptomycin). […] The cells are then placed in a glucose-depleted medium (DMEM containing 1 g/L of glucose) and devoid of serum in the presence of the test molecules or references (IGF-1 at a concentration of 100 ng/ml) for 6 h. At the end of the experiment, messenger RNAs (mRNAs) are extracted using standard phenol and chloroform methodology. Briefly, the cells are lysed in a solution of trizol (Sigma T9424) containing a strong acid and phenol. The mRNAs are separated from the proteins by the addition of chloroform followed by centrifugation. They are then precipitated in isopropanol and then suspended at the concentration of 1 μg/μL in ultra-pure water free of RNA and DNA. 1 μg of mRNA is then converted by retro-transcription into complementary DNA by the AMV enzyme in the presence a primer and a mixture of nucleotides according to the protocol given by the supplier (Applied Biosystems 4368814). […] QPCRs are performed on a 79001-IT Fast Real-Time PCR detection system (Applied Biosystems). The programming conditions are standard and consist of 1 cycle at 95° C. for 15 min, followed by 40 cycles at 95° C. for 15 sec and 60° C. for 1 min and finalized with a melt curve step at 60° C. and 95° C. The analyzed samples all contain 100 ng of cDNA, a qPCR buffer including the enzyme, the mixture of oligonucleotides and the intercalating SYBR green, and the pair of specific primers of the gene being studied, strategically chosen between two exon sequences and at a final concentration of 200 nM. Fluorescent probes bind to the double-stranded. DNA and fluoresce only once attached to the DNA. A fluorescence threshold is established by the program of the machine. When the amount of DNA allows the fluorescent probe to exceed this threshold, a PCR cycle number called “Ct” is obtained for “cycle threshold” or cycle threshold. It is this value that is the basis of the calculations to quantify the DNA in a relative fashion. A ratio R is set between the amount of the starting DNA in a sample and that of a control, which has not been treated (i.e., R=2^−(Ct Sample−Ct Control)) and this measurement will be compared to that of a household gene known to be unmodulated by the treatment (or R=2^−NRCt).
The primers used are recorded in the following table: […]
For the effects on myostatin expression, the results are expressed as a percentage of myostatin gene expression in cells in contact with the molecules related to the expression in the control cells. The product is supposed to be active if this ratio is less than or close to 70%, the average, value of IGF-1 found at the concentration of 100 ng/mL in this test, considered as reference.

[2] = system: muscle cells; test: Protein synthesis (via phosphorylation of S6K1) in muscle cells; assay type: cell-based; settings: for Protein Synthesis (percentage increase in 56K phosphorylation in muscle cells): significant when greater than 120%
Method: The cells are counted and seeded at a density of […] cells per well in a 24-well plate in a DMEM medium containing glucose at 4.5 g/L and supplemented with fetal calf serum (10%) and antibiotics (penicillin and streptomycin). […] The cells are then placed in a medium without glucose or leucine (Krebs medium) for 1 hour at 37° C., and then incubated for 2 hours and 30 minutes in the presence of the test products or reference, (IGF-1, 100 ng/ml) in serum-free DMEM medium containing radiolabeled leucine 2.5 μCi/mL. At the end of the incubation, the supernatants are removed and the cells are lysed in a 0.1N NaOH solution for 30 min. The radioactivity is measured in the cell fraction and the total protein amount is determined by Lowry assay. Each condition is evaluated at a minimum of n=6; IGF-1, 100 ng/mL is our control to stimulate protein synthesis. The results are expressed in cpm/μg of proteins after 2.5 hours of incubation or as a percentage with respect to the control condition.
For the effects on protein synthesis, the results are expressed as a percentage increase in 56K phosphorylation in muscle cells. This percentage is considered significant when it is greater than 120%, the observed average value of IGF-1 at the concentration of 100 ng/mL in this test, considered as reference.

[3] = system: C2Cl2 cells; test: Evaluation of muscle fiber diameter; assay type: cell-based; settings: vs vehicle control
Method: The C2Cl2 myoblastic cells (ATCC CRL-1772) were seeded into glycerol-treated 8-well plates at a density of 10,000 cells per well and cultured in a DMEM medium containing glucose at 4.5 g/L and supplemented with fetal calf serum (10%) and antibiotics (penicillin and streptomycin).
The cells are then placed in a glucose-depleted medium (DMEM containing 1 g/L of glucose) and devoid of serum in the presence of the test molecules or references (IGF-1 at the concentration of 10 ng/mL or dexamethasone 10 nM) for 3 days. At the end of the culture, the cells are rinsed and fixed with 2.5% glutaraldehyde/0.1% Triton solution for 1 hour at room temperature. The cell layer is covered with DAPI (fluorescent labeling of the cell nucleus). After storage in the dark for 16 hours in the cold, the slides are observed under a fluorescence microscope (Carl Zeiss, AxioVert 200) and the images are analyzed using the Axiovision 4.1 software to measure the diameter of the fibers.
C2Cl2 cells are differentiated and treated with compound 1 for the last three days of differentiation.

Compound | inhibition of the expression of myostatin [1] | percentage of myostatin gene expression in cells in contact with the molecules related to the expression in the control cells [1] | Protein Synthesis (percentage increase in 56K phosphorylation in muscle cells) ([2]; 0.5 μm) | Protein Synthesis (percentage increase in 56K phosphorylation in muscle cells) ([2]; 5 μm) | Protein Synthesis (percentage increase in 56K phosphorylation in muscle cells) ([2]; 50 μm) | protein synthesis in muscle cells ([2]; concentration of 0.5 μM) | diameter of the myotubes (muscle fiber diameter, FIG. 1) ([3]; compound 1 at 10 μM, last three days of differentiation) | percentage of myostatin gene expression related to control cells, average value of reference ([1]; IGF-1 at 100 ng/mL) | Protein synthesis, observed average value of reference ([2]; IGF-1 at 100 ng/mL) | diameter of myotubes (muscle fiber diameter, FIG. 1) ([3]; IGF1 at 10 ng/ml, 3 days)
CCON=C(CCC(=O)O)c1ccc(Cl)c(Cl)c1 [Compound 1, 4-(3,4-dichlorophenyl)-4-ethoxyimino-butanoic acid] | significantly inhibit | 71% | 134% | 142% | 151% | significantly increases | significantly increased | – | – | –
CCON=C(CCC(=O)OC(C)C)c1ccc(Cl)c(Cl)c1 [Compound 3, Isopropyl acid 4-(3,4-dichlorophenyl)-4-ethoxyimino-butanoate] | significantly inhibit | 41% | – | – | – | – | – | – | – | –
IGF-1: reference used to inhibit myostatin expression, stimulate protein synthesis and increase myotube diameter [reference compound] | – | – | – | – | – | – | – | 70% | 120% | significantly increases
